Laboratory results from PMC9692523, “Exposure to (Poly)phenol Metabolites after a Fruit and Vegetable Supplement Intake: A Double-Blind, Cross-Over, Randomized Trial” (Nutrients, 2022).

Columns and labels:
[1] = Plasma pharmacokinetics of phenolic metabolites after one 450 mg capsule of the supplement (UHPLC-ESI-MS/MS); assay type: in vivo, human; settings: for Cmax / Tmax / Tpres (time of presence of metabolites in circulation): n = 10, mean ± SEM; for Tpres (time of presence of metabolites in circulation): interval between first and last appearance; for AUC0-24: supplemented volunteers (n = 10), 450 mg capsule, mean ± SEM
Procedure: (§1) This study was designed as a 3-week randomized, double-blind, cross-over clinical trial. Eligible participants were randomized using simple block randomization of 1:1. Once enrolled, subjects received either one 450 mg capsule of the test supplement or one 450 mg capsule of placebo on the first day of the study (Phase I: D1). After three days of sampling, volunteers started a wash-out period of 1 week and were then enrolled for the second test Phase with ingestion of the opposite supplement (Phase II: D1) (Figure 1). The placebo product was 100% maltodextrin, which was (poly)phenol-free.
On the day of the test (D1), volunteers visited the Research Center after an overnight fast. Blood was collected at T0 to determine baseline levels of plasma phenolic metabolites. Then, volunteers were invited to take the 450 mg capsule of the supplement or the placebo with 250 mL of still water (Figure 2). Additional blood samples were then collected at 1 h (D1, T1), 2 h (D1, T2), 3 h (D1, T3), 4 h (D1, T4), 5 h (D1, T5), 6 h (D1, T6), 8 h (D1, T8), 10 h (D1, T10) and 24 h (D2, T24) after capsule intake. Blood was taken from the basilica vein and centrifuged at 3000 rpm for 10 min at 4 °C. Plasma was immediately extracted and frozen at −80 °C for further analysis.
Plasma samples were then extracted using a solid phase extraction (SPE) method, as previously reported by Castello and colleagues. Briefly, 350 µL of plasma samples was diluted (1:1) with phosphoric acid 4% (v/v). After plate activation, 600 µL of the diluted plasma samples was loaded on a 96 well µ-SPE HLB (Oasis® HLB µElution Plate 30 µm, Waters, Milford, Massachusetts, MA, USA). Samples were washed with 200 µL of water and 200 µL of 0.2% (v/v) acetic acid. Finally, samples were eluted with 60 µL of methanol for UHPLC-ESI-MS/MS analysis.
(§2) Plasma and urine samples were analyzed by a UHPLC DIONEX Ultimate 3000 equipped with a triple quadrupole TSQ Vantage (Thermo Fisher Scientific Inc) fitted with a heated ESI (H-ESI) (Thermo Fisher Scientific Inc) probe, as previously reported. Separations were carried out by means of a Kinetex EVO C18 (100 × 2.1 mm) column, 2.6 µm particle size (Phenomenex, Torrance, CA, USA), installed with a pre-column (Phenomenex). Mobile phase A was 0.2% formic acid in water, and mobile phase B was acetonitrile containing 0.2% formic acid. The gradient started with 5% B, and isocratic conditions were maintained for 0.5 min, reaching 95% B after 6.5 min, followed by 1 min at 95%. The starting gradient was then immediately re-established and maintained for 5 min to re-equilibrate the column. The flow rate was 0.4 mL/min, the injection volume was 5 µL and the column temperature was set at 40 °C.
(§3) The applied MS method consisted of the selective determination of each target precursor ion by the acquisition of characteristic product ion in selective reaction monitoring (SRM) mode (Supplemental Table S2). For all the analyses, the spray voltage was set at 3 kV, the vaporizer temperature at 300 °C and the capillary temperature operated at 270 °C. The sheath gas flow was 50 units, and auxiliary gas pressure was set to 10 units. Ultra-high purity argon gas was used for collision-induced dissociation (CID). The S-lens values were defined for each compound based on infusion parameter optimization. Conversely, for those compounds not available for infusion, the S-lens values were set using the values obtained for the chemically closest available standards. Quantification was performed with calibration curves of standards when available or using the most structurally similar compound. Data processing was performed using Xcalibur software (Thermo Scientific Inc., San Jose, CA, USA).
All data were expressed as mean values ± standard deviation (SD) and mean values ± standard error to the mean (SEM) for metabolites in blood and urine samples. […]

[2] = Urinary excretion of phenolic metabolites over 48 h after one 450 mg capsule of the supplement (UHPLC-ESI-MS/MS); assay type: in vivo, human; settings: urine, n = 10, mean ± SEM; for Urinary excretion 0 (h): baseline (day before)
Procedure: as §1
Urine samples were collected the day before (baseline) and during the 48 h period following the supplementation (T0-T3, T3-T6, T6-T10, T10-T14, T14-T24, T24-T32 and T32-T48) (Figure 2). Urine volumes at each collection period were registered, and samples were aliquoted and stored at −80 °C until further processing.
Then, urine samples were prepared as previously reported by Brindani and colleagues. Briefly, urine samples were defrosted, vortexed, diluted in 0.1% formic acid in water (1:4, v/v) and centrifuged at 12,000 rpm for 5 min. Finally, urine samples were filtered (0.45 µm nylon filter) prior to UHPLC-ESI-MS/MS analysis.
as §2, §3
All data were expressed as mean values ± standard deviation (SD) and mean values ± standard error to the mean (SEM) for metabolites in blood and urine samples. PKSolver add-on program in Microsoft Excel was used to determine pharmacokinetic parameters of blood phenolic metabolites, including time to reach the maximum plasma concentration (Tmax, h), maximum plasma concentration (Cmax, nmol/L), area under the curve (AUC0-24, nmol/L·h), and time of presence of metabolites in circulation (Tpres, h). Tpres was calculated by taking the time interval between the first appearance and the last appearance of the considered metabolite. Coefficient of variation (CV) was evaluated for each metabolite and multivariate principal component analysis (PCA) was applied to explore the inter-individual variation in the urinary metabolites among the participants. […]

Row | Structure (SMILES) | Cmax [1] [nM] | Tmax [1] [h] | Tpres (time of presence of metabolites in circulation) [1] [h] | AUC0-24 [1] [µM·h] | Urinary excretion 0 (h) [2] [µg] | Urinary excretion 0–3 (h) [2] [µg] | Urinary excretion 3–6 (h) [2] [µg] | Urinary excretion 6–10 (h) [2] [µg] | Urinary excretion 10–14 (h) [2] [µg] | Urinary excretion 14–24 (h) [2] [µg] | Urinary excretion 24–32 (h) [2] [µg] | Urinary excretion 32–48 (h) [2] [µg] | Urinary excretion Total (0–48 h) [2] | Time of first plasma concentration (absorption) peak ([1]; after supplement intake) [h]
1 | O=C1CCC(Cc2cc(O)cc(OC3OC(C(=O)O)C(O)C(O)C3O)c2)O1 (centres unmarked) [compound 10] | 15 ± 5.61 | 12.78 ± 2.85 | 14.44 ± 2.42 | 0.12555 ± 0.04768 | 5.34 ± 5.34 | 0.00 ± 0.00 | 101.70 ± 51.36 | 316.86 ± 132.04 | 199.53 ± 88.98 | 624.93 ± 108.36 | 281.58 ± 60.75 | 65.29 ± 25.62 | 1595.23 ± 260.71 µg | –
2 | O=C1CCC(Cc2cc(O)cc(OS(=O)(=O)O)c2)O1 (centres unmarked) [compound 16] | 9.97 ± 4.31 | 8.88 ± 2.41 | 10.57 ± 2.72 | 0.03046 ± 0.01185 | 18.25 ± 10.84 | 4.64 ± 3.47 | 439.69 ± 219.42 | 1256.55 ± 516.93 | 944.18 ± 474.02 | 3986.28 ± 711.64 | 1721.60 ± 393.97 | 586.15 ± 240.93 | 8957.33 ± 1361.49 µg | –
3 | O=C1CCC(Cc2cccc(O[C@@H]3O[C@H](C(=O)O)[C@@H](O)[C@H](O)[C@H]3O)c2)O1 (some centres unmarked) [compound 17] | 6.34 ± 1.66 | 5.88 ± 0.95 | 7.13 ± 2.27 | 0.022 ± 0.00641 | 15.01 ± 15.01 | 15.42 ± 15.42 | 196.48 ± 138.99 | 169.91 ± 105.95 | 65.96 ± 36.27 | 468.44 ± 330.34 | 81.71 ± 28.26 | 16.56 ± 16.56 | 1029.49 ± 394.77 µg | –
4 | O=C1CCC(Cc2ccc(OS(=O)(=O)O)c(O)c2)O1 (centres unmarked) [compound 21] | 40 ± 16.9 | 7.00 ± 0.75 | 12.15 ± 1.84 | 0.1417 ± 0.05037 | 344.60 ± 186.50 | 166.29 ± 126.77 | 2548.76 ± 1207.06 | 2277.16 ± 795.52 | 919.49 ± 314.48 | 3618.13 ± 985.44 | 1346.37 ± 481.02 | 389.78 ± 215.48 | 11,610.60 ± 1923.81 µg | –
5 | O=C1CCC(Cc2cccc(OS(=O)(=O)O)c2)O1 (centres unmarked) [compound 23] | 2.15 ± 0.48 | 8.22 ± 2.13 | 9.33 ± 2.45 | 0.01011 ± 0.00389 | 41.07 ± 30.35 | 4.29 ± 2.19 | 52.98 ± 22.54 | 175.24 ± 98.80 | 76.01 ± 39.48 | 345.14 ± 198.47 | 100.92 ± 46.88 | 34.61 ± 16.03 | 830.26 ± 275.43 µg | –
6 | COc1ccc(C2CC(=O)c3c(O)cc(OC4OC(C(=O)O)C(O)C(O)C4O)cc3O2)cc1O (centres unmarked) [compound 28] | 19.9 ± 2.31 | 7.11 ± 0.90 | 17.83 ± 1.54 | 0.15205 ± 0.02784 | 14.48 ± 5.94 | 4.02 ± 2.90 | 20.07 ± 4.27 | 28.56 ± 5.46 | 9.57 ± 2.19 | 30.72 ± 8.04 | 19.07 ± 5.57 | 22.33 ± 5.83 | 148.81 ± 14.88 µg | –
7 | O=C(O)c1ccc(O)c(OC2OC(C(=O)O)C(O)C(O)C2O)c1 (centres unmarked) [compound 35] | – | – | – | – | 1.13 ± 1.13 | 14.20 ± 4.88 | 24.68 ± 5.82 | 12.53 ± 4.10 | 3.10 ± 1.12 | 4.51 ± 1.34 | – | – | 60.16 ± 9.86 µg | –
8 | COc1cc(C(=O)O)cc(OC)c1O.COc1cc(C(=O)O)cc(OC)c1O [compound 39] | – | – | – | – | 0.71 ± 0.46 | 8.71 ± 8.71 | 3.89 ± 3.81 | 3.57 ± 2.82 | 1.42 ± 1.38 | 3.63 ± 2.95 | 3.33 ± 2.94 | 8.73 ± 8.35 | 33.92 ± 30.72 µg | –
9 | O=C(O)[C@H]1O[C@@H](Oc2ccc3c(c2)oc(=O)c2ccc(O)cc23)[C@H](O)[C@@H](O)[C@@H]1O [compound 43] | – | – | – | – | – | – | – | 6.91 ± 6.55 | 5.49 ± 5.21 | 36.41 ± 34.54 | 14.38 ± 9.83 | 5.33 ± 5.05 | 68.53 ± 55.19 µg | –

The next lines start with the values.

Row | Cmax [1] [nM] | Tmax [1] [h] | Tpres (time of presence of metabolites in circulation) [1] [h] | AUC0-24 [1] [µM·h] | Urinary excretion 0 (h) [2] [µg] | Urinary excretion 0–3 (h) [2] [µg] | Urinary excretion 3–6 (h) [2] [µg] | Urinary excretion 6–10 (h) [2] [µg] | Urinary excretion 10–14 (h) [2] [µg] | Urinary excretion 14–24 (h) [2] [µg] | Urinary excretion 24–32 (h) [2] [µg] | Urinary excretion 32–48 (h) [2] [µg] | Urinary excretion Total (0–48 h) [2] | Time of first plasma concentration (absorption) peak ([1]; after supplement intake) [h] | Structure (SMILES)
10 | – | – | – | – | – | – | – | 5.31 ± 5.04 | 39.56 ± 37.53 | 144.45 ± 90.90 | 74.85 ± 48.79 | 30.99 ± 29.40 | 295.17 ± 185.26 µg | – | O=C(O)[C@H]1O[C@@H](Oc2ccc3c(c2)oc(=O)c2ccccc23)[C@H](O)[C@@H](O)[C@@H]1O [compound 44]
11 | 43.6 ± 7.34 | 2.10 ± 0.46 | 13.45 ± 2.80 | 0.19606 ± 0.03272 | – | – | – | – | – | – | – | – | – | 1.38 ± 0.18 | O=C(O)c1ccc(O)c(OS(=O)(=O)O)c1 [compound 45]
12 | 169 ± 156 | 6.43 ± 2.97 | 7.14 ± 3.61 | 0.55828 ± 0.53121 | – | – | – | – | – | – | – | – | – | – | COc1cc(CCC(=O)O)ccc1OS(=O)(=O)O [compound 46]
13 | 816 ± 269 | 6.50 ± 1.28 | 21.55 ± 0.74 | 5.71944 ± 1.32787 | – | – | – | – | – | – | – | – | – | – | O=C(O)CNC(=O)c1ccc(O)cc1 [compound 47]
